Values quoted from earlier work as cited in patent publication US9308243B2, “Cellular enhancements in biological systems through the use of li-pofullerene and peptide group combinations” (LivePet, LLC, priority 2014, dated 2016).

System: male flies
Settings: tiny amount added to food supply

NCCC(=O)N[C@@H](Cc1c[nH]cn1)C(=O)O [carnosine, L-Carnosine]
increase in the average life span: 20%
